Values of other authors in EP0081783B2, “Renin inhibitory peptides having Phe 13 deletion” (Merck & Co., Inc., priority 1981, dated 1989).

System: hog renin
Settings: after the injection of hog renin into nephrectomized rats

In the case of pepstatin, the “blood pressure in vivo” value is given as “reduce blood pressure”.
